Laboratory results taken from patent publication US10172848B2, “Gap junction-enhancing agents for treatment of necrotizing enterocolitis and inflammatory bowel disease” (University of Pittsburgh—of the Commonwealth System of …, priority 2010, dated 2019).
Square brackets hold non-standard residues; d marks the D form. Peptide text beside a SMILES is read from it. dHyp = O=C(O)[C@H]1C[C@H](O)CN1

Tests used:
[1] = qualitative statement, no test described; cited from earlier work
IEC-6 cells = assay: migration into a scraped wound; assay type: cell-based; conditions: migration into a scraped wound over 20 hours, increasing PMA concentration, FIG. 10B
Experimental: (§1) FIG. 10A-B. (A) IEC-6 enterocytes were treated with the concentrations of phorbol myristate acetate (“PMA”) indicated for one hour and then evaluated for the extent of enterocyte gap junction communication by confocal based dye transfer. The untreated cells represent the 100% dye transfer. *p<0.05 versus untreated cells. (B) IEC-6 cells were treated with the concentration of PMA indicated and assessed for their ability to migrate into a scraped wound over 20 hours. *p<0.05 vs. untreated cells. Representative of two separate experiments.
(§2) IEC-6 enterocytes were treated with various concentrations of phorbol myristate acetate (“PMA”) for one hour and then evaluated for the extent of enterocyte gap junction communication by confocal based dye transfer. […] Further, IEC-6 cells were treated with the concentration of PMA indicated and assessed for their ability to migrate into a scraped wound over 20 hours.

IEC-6 enterocytes = assay: enterocyte gap junction communication by confocal based dye transfer; assay type: cell-based; conditions: IEC-6 enterocytes treated with various concentrations of PMA for one hour; untreated cells = 100% dye transfer; FIG. 10A
Experimental: as §1, §2

Structure (SMILES) | half-life [1] | speed (rate) of enterocyte migration (IEC-6 cells) | extent of gap junction communication (dye transfer) (IEC-6 enterocytes) | stability [1]
NCC(=O)N1C[C@H](NC(=O)c2ccccc2)C[C@H]1C(=O)O [GAP-134, (2S,4R)-1-(2-aminoacetyl)-4-benzamido-pyrrolidine-2-carboxylic acid] | shorter half-life than ZP123 | – | – | –
CCCCCCCCCCCCCC(=O)O[C@@H]1[C@@H](C)[C@@]2(O)[C@@H](C=C(CO)C[C@]3(O)C(=O)C(C)=C[C@@H]23)[C@@H]2C(C)(C)[C@]12OC(C)=O [PMA, phorbol myristate acetate] | – | the speed (rate) of enterocyte migration also increased | as concentrations of PMA increased, so did the extent of gap junction communication | –
CC(=O)N[C@H](Cc1ccc(O)cc1)C(=O)N1CCC[C@@H]1C(=O)N1C[C@@H](O)C[C@@H]1C(=O)NCC(=O)N[C@H](C)C(=O)NCC(N)=O [Rotigaptide, (2R, 4S)-1-[(2R)-1-[(2R)-2-acetamido-3-(4-hydroxyphenyl)propanoyl]pyrrolidine-2-carbonyl]-N-[2-[[(2R)-1-[(2-amino-2-oxoethyl)amino]-1-oxopropan-2-yl]amino]-2-oxoethyl]-4-hydroxypyrrolidine-2-carboxamide] (Ac-[dY][dP][dHyp]G[dA]G-NH2) | long half-life | – | – | stable
